The values below come from patent US7855076B2, “Use of discoidin domain receptor 1 (DDR1) and agents that affect the DDR1/collagen pathway” (The United States of America as represented by the …, priority 2002, dated 2010).

Assay [1] deals with THP-1 cells. As to the kind of experiment: Cell migration assay, 24-well BioCoat Insert Chamber. It counts as cell-based, human. The following applies: parental, mock-infected and DDR1a-overexpressing THP-1 cells; MCP-1 10 ng/ml in outer wells, membrane only, 3 hours. As to the method:
Migration of each cell type in response to medium (open column) or MCP-1 (closed column) was measured in the 24-well BioCoat Insert Chamber as described in Example 1 below. In FIG. 3A, results are shown from experiments where inner wells and outer wells were separated by a membrane only. Chambers were incubated at 37° C. for 3 hours. In FIG. 3B, results are shown from experiments where approximately 3 mm of collagen lattice was created above the membrane. Chambers were incubated at 37° C. for 8 hours. The number of migrated cells was counted in each 400× magnified field. The results were presented as migration index denoting the fold increase of cell migration over control (the number of migrated parental cells=1). Data are representative of three experiments with two independent clones overexpressing either DDR1, a or DDR1b.
The cell migration assay was performed by using the 24-well BioCoat Insert Chamber (Becton Dickinson, Bedford, Mass.). […] After a 3-hour incubation at 37° C., the numbers of cells that were adhering on the other side of the membrane and also had fallen into the outer wells were counted. […] After an 8-hour incubation at 37° C., the numbers of cells that were adhering on the other side of the membrane and also had fallen into the outer wells were counted. […]

The subject of assay [2] is THP-1 cells. As to the kind of experiment: Adherence of THP-1 cells to coated plates. It counts as cell-based, human. As to conditions: plates coated with fibronectin; DDR1a- and DDR1b-overexpressing cells. How it is done:
5×10^5 cells/ml were cultured on either BSA (10 mg/ml)- or collagen (20 μg/ml) and BSA-coated plates for 30 (FIG. 2A) or 120 minutes (FIG. 2B) at 37° C. in a 5% CO2 humidified incubator. Normal mouse IgG or anti-β1 integrin blocking IgG was added to measure the effect of β1 integrin in the assay. The number of adherent cells in each 400× visual field was counted. The results are presented as means ±SE of four individual fields. Data are representative of three experiments with two independent clones overexpressing either DDR1a or DDR1b.
To determine the effects of collagen on the functions of DDR1a- and DDR1b-overexpressing THP-1 cells, the cells were incubated on collagen-coated plastic plates. Twenty-four-well plates were coated with 100 μl/well human collagen type I (20 μg/ml) overnight at 4° C., and then with 200 μl/well 10 mg/ml bovine serum albumin (BSA) for 1 hour at 37° C. Cells were plated at the cell density of 1×10^5 cells/ml to the coated wells and were incubated for 30 minutes at 37° C. in 5% CO2 humidified atmosphere. Nonadherent cells were removed by washing three times with PBS. Cells that remained on the coated surface were considered to be adherent, and the number of cells in each 400 field was counted. Results were presented as mean ±SE per 400 field.

With “MCP-1: human recombinant monocyte chemoattractant protein-1”, the migration of cells result in assay [1] is on record as “increased two- to threefold”.
In the case of fibronectin [reference compound], the “adherence or shape change” value in assay [2] is “no effect”.
